One data set relates to mGFAP protein. The data set is described as follows: cell-based GFAP protein level assay (cell-based ELISA) in 172.9 cells. Further details: species or system mouse. The note with it: tertiary screen; 48 hr exposure; at the MTDcc.
The subject of a further data set is GFAP protein. Briefly: sandwich ELISA for GFAP protein in 172.9 cells, quaternary screen. Type of data set: cell-based, mouse. The note with it: 10 days of exposure, 0-20 μM. How it is done:
Compounds were tested at eight different concentrations ranging from 0-20 μM. In addition, GFAP protein levels were measured using a sandwich ELISA, which has greater sensitivity and is more accurate than the cell-based ELISA used in the primary screens.
The extracts were harvested from each well and the total GFAP content of each well was measured by a sandwich ELISA as described below. Briefly, separate microtiter plates were coated with SMI-26 anti-GFAP mouse monoclonal antibody cocktail (1:1000, Covance, diluted in PBS) overnight at 4° C., rinsed 3 times in PBS, and then blocked with Blotto (5% nonfat milk/PBS) for 2 h at RT. Samples from the astrocyte cell lysate (20 μl per well) were loaded onto the plates and brought up to 100 μl with 0.5% Triton X-100/PBS (a buffer used for subsequent antibody incubations and rinses), and incubated with a rabbit polyclonal anti-GFAP antibody (1:5000, DAKO) overnight at 4° C. The plates were rinsed three times and then incubated with HRP-conjugated goat anti-rabbit IgG (1:30,000, Sigma) for 2 h at RT. After three final rinses, peroxidase activity was detected using the Super Signal Femto maximum Sensitivity Substrate (Pierce) with a GloRunner microplate luminometer (Turner Biosystems). The GFAP content in the samples was determined from a standard curve generated using serial dilutions of purified GFAP (Research Diagnostics).
On the technique in general: In an ELISA, binding on a coated surface is turned into a signal by an enzyme label.

In the next data set the test system is GFAP promoter. The data set is described as follows: GFAP promoter activity in brain of Tg172.9 mice (Dual-Glo luciferase assay). Type of data set: in vivo, mouse. How it is done: Controls were injected with vehicle only. Brains were collected at various times post-injection, and analyzed for GFAP promoter activity using the Dual-Glo assay. Graphs present the mean±SEM (n=4 at each data point). Statistical significance was evaluated by unpaired t-test (* p<0.05). […] Brains were collected at 6 hours post-injection and analyzed for GFAP promoter activity using the Dual-Glo assay. Graphs present the mean±SD (n=4 at each data point). Statistical significance was evaluated by unpaired t-test (* p<0.05).
Another group of mice were injected with the same volume of vehicle alone (n=15). Brains were bisected sagittally with one half analyzed for GFAP promoter activity using the Dual-Glo assay, and the other half analyzed for GFAP protein using the sandwich ELISA. FIG. 7A is a bar graph showing hGFAP promoter activity of clomipramine-treated mice. The mice show a 26% reduction in hGFAP promoter activity compared to vehicle-treated controls. FIG. 7B is a bar graph showing the GFAP protein levels of clomipramine-treated mice. The mice show a 57% reduction in total GFAP content compared to vehicle-treated controls. Graphs present the mean±SD (* p<0.05, ***p<0.001, unpaired t-test).
At various times after injection, from 0-48 hours, brains were harvested for measurement of GFAP promoter activity using the Dual-Glo luciferase assay, and GFAP protein using a sandwich ELISA.
Injections were given in the afternoon, between 3-5 PM. Controls were transgenic littermates injected with vehicle alone. At the end of the three week course of injections (and one day after the last injection), brains were harvested for analysis of GFAP promoter activity and protein levels as described above.
To achieve significant reductions of GFAP protein in vivo may require chronic treatments, given the slow turnover of this protein. […] Controls were injected with vehicle alone. One day after the last injection, brains were harvested and assayed for both GFAP promoter activity and GFAP protein.

A further data set relates to GAPDH promoter. The data set is described as follows: housekeeping GAPDH promoter activity in brain of Tg172.9 mice. It is filed as in vivo, mouse. The note with it: 40 mg/kg IP every other day for 3 weeks. How it is done:
The dual transgenic reporter mice (FVB-Tg(GFAP-luc,GAPDH-luc)172.9Mes/J mice (JR#9638)) were developed as follows. The two transgenes were co-injected at equimolar ratios into the pronuclei of fertilized eggs on either FVB/N or FB6F1 hybrid backgrounds, using a combined concentration of 3 ng/μL. Genotyping was performed by PCR on genomic DNA isolated from tail biopsies at weaning, using the following conditions: one cycle at 95° C. 3 min, 32 cycles of 95° C. 40 s, 58° C. 30 s, 72° C. 1 min and a final extension step at 72° C. for 5 min. The primers used for detection of the GFAP-fLuc transgene were 5′-[…]-3′ (forward) and 5′-[…]-3′ (reverse), and for detection of the GAPDH-RLuc transgene were 5″-[…]-3′ (forward) and 5′-[…]-3′ (reverse). The predicted sizes for the PCR fragments are 403 bp for the GFAP-fLuc transgene, and 551 by for the GAPDH-RLuc transgene. Nine founder mice were identified that contained both transgenes, and were mated to FVB/N mice to establish lines. (The Tg172-9 line of mice has been donated to the Jackson Laboratory ([…]) for unrestricted distribution (stock #JR9638). The GAPDH (glyceraldehyde 3-phosphate dehydrogenase) promoter was used to monitor transcription of a housekeeping gene for signal normalization.

The conditions of data set [1]: sometimes considered in combination with desmethyl-clomipramine; cited from earlier work.

Bounds are passed on as bounds.

Take `CN(C)CCCN1c2ccccc2CCc2ccc(Cl)cc21` [clomipramine]: in the data set with mGFAP protein, the “% GFAP reductions, mGFAP protein via ELISA” value is reported as 20.6%. Further, the “reductions in GFAP protein levels” value in the data set with GFAP protein is on record as “consistent reductions”. Besides, the “reduction in GFAP promoter activity compared to vehicle-treated controls” value in the data set with GFAP promoter (40 mg/kg IP every other day for 3 weeks) was 26%. In addition, in the data set on GFAP promoter (single 40 mg/kg IP, brain), the “time at which promoter activity returned to normal” value was ≤ 24 h and the “time of peak reduction in promoter activity after injection” value was 4 to 6 h. In addition, the “reduction in promoter activity” value in the data set on GFAP promoter (single injection of 40 mg/kg IP, brains collected at 4 hours after injection) was 38%. Moreover, the “effect on promoter activity” value in the data set with GFAP promoter (single injection, doses of 5-20 mg/kg IP) is “without effect”. In the data set on GAPDH promoter, the “change in activity from the housekeeping GAPDH promoter” value is on record as “no significant change”. The “plasma concentration considered therapeutic in humans” value in data set [1] was 0.3 to 1.75 µM.

(Values after patent publication US8372808B2, “Suppression of glial fibrillary acidic protein” (Wisconsin Alumni Research Foundation, priority 2008, dated 2013).)
